Measurements taken from the supplement of paper PMC10307832.

Legend:
Assay in all cases: relative viability (nuclei count vs DMSO), 5 days (fraction); higher = more cells survive
[1] = compound: C1CNCCC1C2=CC(=NN2)C3=CC=NC=C3 + Cc1nc(Nc2ncc(C(=O)Nc3c(C)cccc3Cl)s2)cc(N2CCN(CCO)CC2)n1 [Dasatinib] (partner 0.075 µM)
In short: (§1)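 Lung cancer cell lines were seeded in 1536-well plates and dosed by pin tool the next day, with either a single drug or a fixed anchor-drug dose combined with five library-drug doses (not always all listed) spaced in √10 steps. Five days later, one step fixed the cells and stained their nuclei (final 0.05% Triton X-100, 1% formaldehyde, 1 ug/ml Hoechst), and nuclei were counted on 4× images. Relative viability is the nuclei count in treated wells divided by the count in vehicle wells, and each value is the median of duplicate plates.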

[2] = compound: C1CNCCC1C2=CC(=NN2)C3=CC=NC=C3 + NC(=O)Nc1cc(-c2cccc(F)c2)sc1C(=O)N[C@H]1CCCNC1 [AZD7762] (partner 0.2 µM)
In short: as §1

[3] = compound: C[C@@H](N)c1ccc(C(=O)Nc2ccnc3[nH]ccc23)cc1 + NC(=O)Nc1cc(-c2cccc(F)c2)sc1C(=O)N[C@H]1CCCNC1 [AZD7762] (partner 0.2 µM)
In short: as §1

[4] = compound: O[C@H]1CC[C@H](Nc2ncc3nc(Nc4c(F)cc(F)cc4F)n([C@H]4CCOC4)c3n2)CC1 [Tanzisertib] + O=C(c1cc(Cc2n[nH]c(=O)c3ccccc23)ccc1F)N1CCN(C(=O)C2CC2)CC1 [Olaparib] (partner 8 µM)
In short: as §1

Row | Cell Line | relative viability ([1]; first compound 0.08 µM) | relative viability ([1]; first compound 0.8 µM) | relative viability ([1]; first compound 2.53 µM) | relative viability ([1]; first compound 8 µM) | relative viability ([2]; first compound 0.08 µM) | relative viability ([2]; first compound 0.8 µM) | relative viability ([2]; first compound 2.53 µM) | relative viability ([2]; first compound 8 µM) | relative viability ([3]; first compound 0.04 µM) | relative viability ([3]; first compound 0.1265 µM) | relative viability ([3]; first compound 0.4 µM) | relative viability ([3]; first compound 1.265 µM) | relative viability ([3]; first compound 4 µM) | relative viability ([4]; first compound 0.08 µM) | relative viability ([4]; first compound 0.253 µM) | relative viability ([4]; first compound 0.8 µM) | relative viability ([4]; first compound 2.53 µM) | relative viability ([4]; first compound 8 µM)
1 | NCI-H596 | 0.602 | 0.562 | 0.654 | 0.664 | 1.1 | 1.31 | 1.12 | 1.39 | 1.02 | 1.1 | 0.828 | 1.01 | 1.04 | 0.758 | 0.657 | 0.622 | 0.625 | 0.697
2 | NCI-H1944 | 0.201 | 0.206 | 0.231 | 0.232 | 0.442 | 0.467 | 0.477 | 0.503 | 0.479 | 0.542 | 0.611 | 0.798 | 0.606 | 0.462 | 0.412 | 0.377 | 0.44 | 0.385
3 | LK-2 | 0.236 | 0.388 | 0.275 | 0.482 |  | 0.29 | 0.532 | 0.522 | 0.493 | 0.385 | 0.603 | 0.434 | 0.621 | 0.772 | 0.835 | 0.712 | 0.669 | 0.769
4 | HCC-15 | 0.556 | 0.646 | 0.639 | 0.609 | 1.17 | 1.3 | 1.21 | 0.987 | 1.19 | 1.23 | 1.4 | 1.18 | 1.28 | 0.779 | 0.742 | 0.791 | 0.713 | 0.727
5 | NCI-H727 | 0.489 | 0.5 | 0.33 | 0.328 | 0.658 | 0.474 | 0.72 | 0.773 | 1.04 | 0.801 | 0.788 | 0.996 | 0.833 | 0.69 | 0.678 | 0.553 | 0.734 | 0.686
6 | HOP-62 | 0.691 | 0.635 | 0.703 | 0.648 | 0.67 | 1 | 0.751 | 0.462 | 0.534 | 0.471 | 0.746 | 0.685 | 0.402 | 0.268 | 0.426 | 0.587 | 0.643 | 0.556
7 | NCI-H3122 | 0.605 | 0.879 | 0.983 | 0.859 | 0.948 | 1.06 | 0.966 | 1.01 | 1.13 | 0.982 | 1.06 | 1.06 | 0.955 | 0.708 | 0.587 | 0.634 | 0.583 | 0.62
8 | NCI-H1395 | 0.399 | 0.345 | 0.381 | 0.471 | 0.389 | 0.437 | 0.405 | 0.398 | 0.396 | 0.391 | 0.395 |  | 0.39 | 0.462 | 0.445 | 0.455 | 0.42 | 0.45
